Laboratory results: patent publication US10070889B2, “Inorganic pyrophosphate and uses thereof” (The Curators of the University of Missouri, priority 2011, dated 2018)
Where two headings read alike, the source gives them in different places. Where a SMILES comes first, the peptide text is derived from it. The star is where a group is joined. Cbz = O=C(OCc1ccccc1)*

What was measured:
[1] = system: sperm diluted in BTS; conditions: added to sperm diluted in BTS, after 6 days of cooling; cited from earlier work
[2] = system: 20S chymotrypsin-like activity sensitive to proteasomal inhibitor MG132; assay: Proteasomal activity of stored spermatozoa, fluorometric substrate Z-LLL-AMC; format: cell-based, boar
Description: Spermatozoa preserved in BTS with and without 10 μM PPi were loaded into a 96-well black plate (final sperm conc. 1×10^6 spermatozoa/ml), and incubated at 37.5° C. with Z-LLE-AMC (a specific substrate for 20S chymotrypsin-like peptidyl-glutamylpeptide hydrolyzing [PGPH] activity not sensitive to MG132; final conc. 100 μM; Enzo Life Sciences, Plymouth, Pa.), Z-LLVY-AMC (a specific substrate for 20S proteasome and other chymotrypsin-like proteases, as well as calpains; final conc. 100 μM; Enzo), Z-LLL-AMC (a specific substrate for 20S chymotrypsin-like activity sensitive to proteasomal inhibitor MG132; final conc. 100 μM; BostonBiochem, Cambridge, Mass.) or ubiquitin-AMC (specific substrate for ubiquitin-C-terminal hydrolase activity; final conc. 1 μM; Enzo) for 1 h. […] In the presence of appropriate 20S core activity, the AMC molecule is cleaved off and becomes fluorescent. This emitted fluorescence was measured every 10 min for a period of 1 h, yielding a curve of relative fluorescence (no units). Fluorescence intensity was measured by Thermo Fluoroskan Ascent (Thermo Scientific), using a 380 nm excitation and 460 nm emission.

[3] = system: boar spermatozoa bound to porcine oocyte zona pellucida
Description: Spermatozoa/oocytes were fixed in 2% formaldehyde for 40 min at room temperature, washed, permeabilized in PBS with 0.1% Triton-X-100 (PBS-TX), and blocked for 25 min in PBS-TX containing 5% normal goat serum. […] In order to count the number of spermatozoa bound to zona pellucida or acrosome reacted spermatozoa, oocyte were fixed and stained with DAPI and acrosome-binding lectin PNA-FITC (Molecular Probes) after IVF 30 min (5×10^5 spermatozoa/ml). Image acquisition was performed on a Nikon Eclipse 800 microscope (Nikon Instruments Inc., Melville, N.Y.) with Cool Snap camera (Roper Scientific, Tucson, Ariz.) and MetaMorph software (Universal Imaging Corp., Downington, Pa.).

[4] = system: porcine oocytes inseminated with boar spermatozoa; assay: Porcine in vitro fertilization (IVF), total and polyspermic fertilization rates; format: cell-based
Description: Thereafter, 25-30 oocytes were placed into each of four 50 μl drops of the mTBM medium, which had been covered with mineral oil in a 35 mm polystyrene culture dish. The dishes were allowed to equilibrate in the incubator for 30 min until spermatozoa were added for fertilization. […] At the end of the washing procedure, the spermatozoa were resuspended in mTBM medium. After appropriate dilution, 50 μl of this sperm suspension was added to 50 μl of the medium that contained oocytes to give a final sperm concentrations of 1-10×10^5 spermatozoa/ml. Different concentrations of inorganic pyrophosphate (PPi; […], Sigma) were added to fertilization drops (final concentrations; 0-20 μM) at the time of sperm addition. Oocytes were co-incubated with spermatozoa for 6 h at 38.5° C., 5% CO2. At 6 h after IVF, oocytes were transferred into 100 μl NCSU23 containing 0.4% BSA ([…], Sigma) for further culture during 16-20 h.

[5] = system: boar spermatozoa; conditions: stored in BTS with 10 μM PPi
Description: Boar spermatozoa were washed twice with PBS-PVA, and sperm concentration was adjusted to 1×10^6 spermatozoa/ml in PBS-PVA. The sperm viability was assessed by LIVE/DEAD® Sperm Viability Kit (L-7011, Molecular Probes) which contains DNA dyes SYBR14 and propidium iodide (PI), following a manufacturer's protocol. Sperm samples (198 μl) were loaded onto a 96-well plate. SYBR14 (1 μl; final conc. 100 nM) and PI (1 μl; final conc. 12 μM) were added to sperm samples and incubated for 10 min at 37.5° C. in darkness. Flow cytometric analysis was performed using a Guava EasyCyte™ Plus flow cytometer (Guava Technologies, IMV Technologies, L'Aigle, France). For each sample, 5,000 events were analyzed by the Guava ExpressPro Assay program, using standard manufacturer settings. For assessment of sperm mitopotential, boar spermatozoa were stained with JC-1 (Cat. No. 4500-0250, MitoPotential Kit, IMV), and measured using manufacturer settings. For negative controls, DMSO or no staining solution was added to sperm samples.
Following an industry practice for boar semen storage, fresh boar semen was diluted in BTS extender and stored at room temperature (15-17° C.) for 10 days. […] As described above, sperm viability was assessed by flow cytometry using a SYBR14/PI viability kit and mitopotential was measured with JC-1 dye.

[6] = system: boar spermatozoa; conditions: BTS-IMV+10 μM PPi, day 6, vs all other groups
Description: Values are expressed as the mean±SEM. […] Values are expressed as the mean percentages ±SEM. […] (C) Effect of PPi supplementation on the viability of spermatozoa stored in commercial and custom made BTS extenders. Boar spermatozoa were preserved in BTS-IMV (IMV technologies, France) or BTS-HM (homemade) with and without 10 μM PPi for 7 days at room temperature. Sperm motilities were evaluated by observation under light microscopy at 37.5° C. […] Experiments were repeated twice.
Semen was collected from proven fertile adult Duroc boars 15-22 months of age under the guidance of approved Animal Care and Use Committee (ACUC) protocols of the University of Missouri-Columbia (UM-C). The boars were placed on a routine collection schedule of one collection per week. The sperm-rich fraction of ejaculate was collected into an insulated vacuum bottle. Sperm-rich fractions of ejaculates with greater than 85% motile spermatozoa were used. Semen volumes were determined with a graduated cylinder. Sperm concentrations were estimated by a hemocytometer (Fisher Scientific, Houston, Tex.). The percentage of motile spermatozoa was estimated at 38.5° C. by light microscopy at 250× magnification. […]

[7] = system: 20S chymotrypsin-like peptidyl-glutamylpeptide hydrolyzing [PGPH] activity; conditions: other treatments 363.1-386.1
Description: (§1) The proteasomal-proteolytic and deubiquitinating activities, which are essential for fertilization, were assayed using specific fluorometric substrates Z-LLL-AMC, Z-LLVY-AMC, Z-LLE-AMC and ubiquitin-AMCs in spermatozoa stored for 3 and 10 days, with or without PPi. Alternatively, 10 μM PPi+BTS was added to semen preserved without PPi at the time of assay (“Add PPi” treatment). As a negative control, 10 μM MG132 (a proteasomal inhibitor) was added to sperm samples before assay.
(§2) Spermatozoa preserved in BTS with and without 10 μM PPi were loaded into a 96-well black plate (final sperm conc. 1×10^6 spermatozoa/ml), and incubated at 37.5° C. with Z-LLE-AMC (a specific substrate for 20S chymotrypsin-like peptidyl-glutamylpeptide hydrolyzing [PGPH] activity not sensitive to MG132; final conc. 100 μM; Enzo Life Sciences, Plymouth, Pa.), Z-LLVY-AMC (a specific substrate for 20S proteasome and other chymotrypsin-like proteases, as well as calpains; final conc. 100 μM; Enzo), Z-LLL-AMC (a specific substrate for 20S chymotrypsin-like activity sensitive to proteasomal inhibitor MG132; final conc. 100 μM; BostonBiochem, Cambridge, Mass.) or ubiquitin-AMC (specific substrate for ubiquitin-C-terminal hydrolase activity; final conc. 1 μM; Enzo) for 1 h. Fluorogenic proteasomal core substrates are composed of a small peptide (LLL/LLE/LLVY) coupled to a fluorescent probe, aminomethylcoumarin (AMC). […] In the presence of appropriate 20S core activity, the AMC molecule is cleaved off and becomes fluorescent. This emitted fluorescence was measured every 10 min for a period of 1 h, yielding a curve of relative fluorescence (no units). Fluorescence intensity was measured by Thermo Fluoroskan Ascent (Thermo Scientific), using a 380 nm excitation and 460 nm emission.

[8] = system: ubiquitin-C-terminal hydrolase activity; conditions: PPi+BTS (stored with 10 μM PPi), day 10; other treatments 98.4-122.7
Description: as §1, §2

[9] = system: 20S proteasome and other chymotrypsin-like proteases, as well as calpains; conditions: PPi+BTS and Add PPi treatments, 10 μM PPi; controls 85.7
Description: as §1, §2

prostaglandin F2α [PGF2α]
sperm viability and motility [1]: maintained better sperm viability and motility

CC(C)C[C@@H](C=O)NC(=O)[C@H](CC(C)C)NC(=O)[C@H](CC(C)C)NC(=O)OCc1ccccc1 [MG132, reference compound] (Cbz-Leu-Leu-Leu-aldehyde)
chymotrypsin-like activity in spermatozoa ([2]; 10 μM MG132 added before assay, day 3): low

O=P(O)(O)OP(=O)(O)O [PPi, inorganic pyrophosphate]
percentage of acrosome-reacted spermatozoa ([3]; 20 μM PPi vs 0-15 μM PPi): significantly higher
mean number of spermatozoa bound to ZP ([3]; increasing concentrations of PPi, 30 min, 5×10^5 spermatozoa/ml): decreased slightly, but not significantly
polyspermy ([4]; 10 μM PPi in IVF medium, 1×10^6 spermatozoa/ml): 84.9%
percentage of total and polyspermic fertilization at reduced sperm concentrations ([4]; 10 μM PPi, 1, 2 and 5×10^5 spermatozoa/ml, significant at 5×10^5): augmented
fertilization rates with excess PPi ([4]; 100-500 μM PPi added into IVF medium): decreased fertilization rates in a dose-dependent manner
rates of total and polyspermic fertilization ([4]; increasing concentrations of PPi (up to 10 μM) in IVF medium, 1×10^6 spermatozoa/ml): increased significantly and progressively
combined (mono+polyspermic) fertilization rate, spermatozoa preserved with PPi ([4]; preserved with 10 μM PPi in BTS 3-4 days, IVF with or without PPi (FIG. 7D third, fourth column)): highest
fertilization ([4]; spermatozoa stored in BTS-IMV with 10 μM PPi for 3 days, below 70% without PPi): ~100%
fertilization rates, spermatozoa stored without PPi, PPi added during IVF ([4]; stored 3-4 days in BTS without PPi, IVF with 10 μM PPi (FIG. 7D second column)): higher
chymotrypsin-like activity (Z-LLL-AMC) ([2]; 10 μM PPi treatments vs no PPi, 1 h measurement): no differences between treatments
content of metabolically active spermatozoa with polarized mitochondrial membranes ([5]; day 3, JC-1): augmented
percentage of live spermatozoa vs control spermatozoa ([5]; storage days 3 and 10, SYBR14/PI): no significant difference
sperm motility [6]: Higher
chymotrypsin-like PGPH activity (Z-LLE-AMC), relative fluorescence ([7]; Add PPi treatment (10 μM PPi added at time of assay), day 3): 392.1
chymotrypsin-like PGPH activity (Z-LLE-AMC), relative fluorescence ([7]; PPi+BTS (stored with 10 μM PPi), day 10): 388
deubiquitinating activity (ubiquitin-AMC), relative fluorescence [8]: 138.9
chymotrypsin-like proteasomal core activity (Z-LLVY-AMC), fluorescence intensity [9]: 110.8-121.5
